Values of other authors, collected in US9878049B2, “High drug loading system to co-deliver anticancer drugs and nucleic acids for cancer therapy” (THE UNIVERSITY OF AKRON, priority 2013, dated 2018).

Conditions: general statement, no test described

CC[C@@]1(O)C(=O)OCc2c1cc1n(c2=O)Cc2cc3ccccc3nc2-1 [CPT, Camptothecin]
water solubility: low water solubility
